According to patent US20100261639A1, “TRIAZOLE-BASED AMINOGLYCOSIDE-PEPTIDE CONJUGATES AND METHODS OF USE” (UNIVERSITY OF MANITOBA, priority 2007, published 2010):
≈ marks a conversion by molar mass, not a printed value.

System: S. aureus ATCC 29213
Assay: MIC, macrobroth dilution, S. aureus ATCC 29213
Assay type: cell-based, Staphylococcus aureus
Settings: visible growth after 24 h at 37° C.
Procedure: The microbiological activities of the neomycin-peptide conjugates and kanamycin-peptide conjugates against both American Type Culture Collection (ATCC) reference and clinical strains of Staphylococcus aureus, MRSA, Staphylococcus epidermidis, MRSE, Enterococcus faecalis, Enterococcus faecium, Streptococcus pneumoniae, E. coli, Pseudomonas aeruginosa, Stenotrophomonas maltophilia, Acinetobacter baumannii, and Klebsiella pneumoniae were assessed. Special focus was given to assess activity against multi-drug resistant strains of these pathogens. Antibiotic susceptibility testing was performed using the macrobroth dilution method as per Clinical Laboratory Standards Institute-CLSI (formerly National Committee for Clinical and Laboratory Standards-NCCLS) (Clinical and Laboratory Standards Institute, 2006). MIC values defined as the lowest concentration of antimicrobial agent which inhibited the development of visible growth after 24 h at 37° C.

SMILES: NC[C@@H]1O[C@H](O[C@H]2[C@@H](O)[C@H](O[C@@H]3[C@@H](O)[C@H](N)C[C@H](N)[C@H]3O[C@H]3O[C@H](CN)[C@@H](O)[C@H](O)[C@H]3N)O[C@@H]2CO)[C@H](N)[C@@H](O)[C@@H]1O [Neomycin B, neomycin B]
- minimal inhibitory concentration (MIC): 2 µg/mL (≈ 3.25 µM)
